Assay results published in patent US11224234B2, “Functional chocolate” (IMMD SP. Z.O.O., priority 2016, dated 2022).

Experiment: Pharmacokinetics of trans-Resveratrol in human serum, crossover clinical study
Format: in vivo
Conditions: single ingestion
Description: This was a crossover clinical study on 6 volunteers of 35-65 years old, 3 women and 3 men. It was a multi-arm trial with one-week interval between each arm. Prior to every experiment volunteers were asked not to consume food, which may contain fruit, vegetable or grain polyphenols and tomato-based products. In the morning of the experiment volunteers were asked to abstain from any food and drink only water. The serum of the vein blood was analysed. […] Firstly, a sample was collected before ingesting of a product, then every hour for 4 hours after ingestion. To assess the pharmacokinetics (PK) of t-RSV of our dark and milk chocolate with embedded bilberry and aronia extracts, we undertook a crossover clinical study with the same group of volunteers. On top of these we added into this crossover study a few more groups with Nutella spread where chocolate is only a small ingredient. The design of the study and the sample collection was the same as in the glucose postprandial study described above.

In the case of `Oc1ccc(/C=C/c2cc(O)cc(O)c2)cc1` [t-RSV capsule, trans-Resveratrol], the “t-RSV AUC 0-4 hours” value is reported as 105 to 380 ng/mL and the “t-RSV Max” value is reported as 100 to 207 ng/mL.
